Where two headings read alike, the source gives them in different places.
How the values were obtained:
[1] = system: Clostridium difficile hypervirulent ribotype 027 (RT027) strains; assay: drug sensitivity test, resistance rate of 269 RT027 strains; type: cell-based; settings: for Resistance rate to Category 1 (56 strains) / Resistance rate to Category 2 (23 strains) / Resistance rate to Category 3 (190 strains): 269 RT027 strains; for Resistance rate to Category 2 (23 strains): Category 2 (sensitive branch); for Average resistance rate: all 269 RT027 strains
[2] = system: Clostridium difficile clade2 strains; type: cell-based; settings: for Resistance rate to Category 1 (70 strains) / Resistance rate to Category 2 (96 strains) / Resistance rate to Category 3 (217 strains): 383 clade2 strains; for Average resistance rate: all 383 clade2 strains

SMILES	Resistance rate to Category 1 (56 strains) [1] [%]	Resistance rate to Category 2 (23 strains) [1] [%]	Resistance rate to Category 2 (23 strains) ([1]; listed as metronidazole) [%]	Resistance rate to Category 3 (190 strains) [1] [%]	Average resistance rate [1] [%]	Resistance rate to Category 1 (70 strains) [2] [%]	Resistance rate to Category 2 (96 strains) [2] [%]	Resistance rate to Category 2 (96 strains) ([2]; listed as metronidazole) [%]	Resistance rate to Category 3 (217 strains) [2] [%]	Average resistance rate [2] [%]	Resistance rate to Category 2 (23 strains) ([1]; listed as vancomycin) [%]	Resistance rate to Category 3 (190 strains) ([1]; listed as vancomycin) [%]	Resistance rate to Category 2 (96 strains) ([2]; listed as vancomycin) [%]	Resistance rate to Category 3 (217 strains) ([2]; listed as vancomycin) [%]
Cc1ncc([N+](=O)[O-])n1CCO [Metronidazole, metronidazole]	51.79	0.0	0.0	47.37	44.24	52.86	3.13	3.03	48.39	37.86	–	–	–	–
CN[C@H](CC(C)C)C(=O)N[C@H]1C(=O)N[C@@H](CC(N)=O)C(=O)N[C@H]2C(=O)N[C@H]3C(=O)N[C@H](C(=O)N[C@H](C(=O)O)c4cc(O)cc(O)c4-c4cc3ccc4O)[C@H](O)c3ccc(c(Cl)c3)Oc3cc2cc(c3O[C@@H]2O[C@H](CO)[C@@H](O)[C@H](O)[C@H]2O[C@H]2C[C@](C)(N)[C@H](O)[C@H](C)O2)Oc2ccc(cc2Cl)[C@H]1O [Vancomycin, vancomycin]	94.64	21.74	–	21.05	36.43	92.86	30.21	–	22.58	37.34	21.74	21.05	30.21	22.58
